Experiments:
[1] = biological target: T1, Vitamin D3 receptor (Homo sapiens) (UniProt P11473); assay: Inhibition of Fluormone VDR Red binding to human VDR LBD expressed in insect cells assessed as binding ability at 1 uM by fluorescence polarization assay relative to 1,25(OH)2D3; parameters: scale not given: the % may be the effect or the level left
T1 sequence (whole entry): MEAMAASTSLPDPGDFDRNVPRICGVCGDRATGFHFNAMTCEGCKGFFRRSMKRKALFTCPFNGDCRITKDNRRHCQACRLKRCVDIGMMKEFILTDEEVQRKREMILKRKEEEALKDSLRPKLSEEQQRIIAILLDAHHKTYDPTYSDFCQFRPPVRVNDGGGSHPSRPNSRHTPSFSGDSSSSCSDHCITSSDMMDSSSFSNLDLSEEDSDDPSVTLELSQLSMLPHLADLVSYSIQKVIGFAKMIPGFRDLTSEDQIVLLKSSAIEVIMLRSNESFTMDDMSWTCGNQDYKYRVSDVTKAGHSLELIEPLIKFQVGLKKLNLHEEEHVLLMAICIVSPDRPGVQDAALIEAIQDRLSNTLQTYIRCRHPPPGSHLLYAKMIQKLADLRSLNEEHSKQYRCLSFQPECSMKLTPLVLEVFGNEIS

[2] = tested on: MCF7; assay: Antiproliferative activity against human MCF7 cells after 72 hrs by MTT assay; assay type: functional, cell-based; settings: MCF7, 72 h
[3] = tested on: PC-3; assay: Antiproliferative activity against human PC3 cells after 72 hrs by MTT assay; assay type: functional, cell-based; settings: PC-3, 72 h
[4] = biological target: T2, Vitamin D3 receptor (Homo sapiens, UniProt P11473); assay: Inhibition of Fluormone VDR Red binding to human VDR LBD expressed in insect cells assessed as binding ability by fluorescence polarization assay
T2 sequence (P11473 whole entry): T1 sequence (whole entry)

[5] = tested on: L02; assay: Antiproliferative activity against human L02 cells after 72 hrs by MTT assay; assay type: cell-based; settings: L02, 72 h
[6] = Selectivity index, ratio of IC50 for human L02 cells to IC50 for human MCF7 cells; assay type: functional
[7] = Selectivity index, ratio of IC50 for human L02 cells to IC50 for human PC3 cells; assay type: functional

## CCn1c(C(=O)NCCC(=O)O)ccc1C(CC)(CC)c1ccc(C#CC(O)(CC)CC)c(C)c1
[1]
  Activity: 13.6%
[2]
  IC50: > 50 µM
[3]
  IC50: 5.13 µM

## CCN(CC)CCCNC(=O)c1ccc(C(CC)(CC)c2ccc(C#CC(O)(CC)CC)c(C)c2)n1CC
[1]
  Activity: 18.8%
[2]
  IC50: 17.8 µM
[3]
  IC50: 8.5 µM

## CCn1c(C(=O)NCc2ccc(OC)cc2)ccc1C(CC)(CC)c1ccc(C#CC(O)(CC)CC)c(C)c1
[1]
  Activity: 4%
[2]
  IC50: > 50 µM
[3]
  IC50: > 50 µM

## CCn1c(C(=O)On2nnc3ccccc32)ccc1C(CC)(CC)c1ccc(C#CC(O)(CC)CC)c(C)c1
[2]
  IC50: > 50 µM
[3]
  IC50: > 50 µM

## CCn1c(C(=O)NCCCO)ccc1C(CC)(CC)c1ccc(C#CC(O)(CC)CC)c(C)c1
[4]
  IC50: 0.123 µM
[1]
  Activity: 59.7%
[2]
  IC50: 5.95 µM
[3]
  IC50: > 50 µM

## CCn1cc(C(CC)(CC)c2ccc(C#CC(O)(CC)CC)c(C)c2)cc1C(=O)NCCC(=O)O
[1]
  Activity: 4.3%
[2]
  IC50: 30.6 µM
[3]
  IC50: > 50 µM

## CCCCC(=O)c1cc(C(CC)(CC)c2ccc(C#CC(O)(CC)CC)c(C)c2)cn1CC
[2]
  IC50: > 50 µM
[3]
  IC50: 48.1 µM

## CCn1cc(C(CC)(CC)c2ccc(C#CC(O)(CC)CC)c(C)c2)cc1C(=O)NCC(=O)O
[1]
  Activity: 14.6%
[2]
  IC50: 17.5 µM
[3]
  IC50: 6.3 µM

## CCn1c(C(=O)N[C@H](C(=O)O)C(C)C)ccc1C(CC)(CC)c1ccc(C#CC(O)(CC)CC)c(C)c1
[1]
  Activity: 5.9%
[2]
  IC50: 13 µM
[3]
  IC50: 5 µM

## CCCCC(=O)c1ccc(C(CC)(CC)c2ccc(C#CC(O)(CC)CC)c(C)c2)n1CC
[2]
  IC50: > 50 µM
[3]
  IC50: > 50 µM

## CCN(CC)CCNC(=O)c1ccc(C(CC)(CC)c2ccc(OCC(O)C(C)(C)C)c(C)c2)n1CC (stereo unspecified)
[4]
  IC50: 0.0768 µM
[1]
  Activity: 25.5%
[2]
  IC50: 1.37 µM
[3]
  IC50: 2.8 µM
[5]
  IC50: 21.2 µM
[6]
  Ratio IC50: 15.5
[7]
  Ratio IC50: 7.6

## CCn1cc(C(CC)(CC)c2ccc(C#CC(O)(CC)CC)c(C)c2)cc1C(=O)NCC(=O)OC
[2]
  IC50: 26.5 µM
[3]
  IC50: 17.4 µM

## CCn1c(C(=O)NCCC(=O)OC)ccc1C(CC)(CC)c1ccc(C#CC(O)(CC)CC)c(C)c1
[2]
  IC50: > 50 µM
[3]
  IC50: 36.3 µM

## CCn1cc(C(CC)(CC)c2ccc(C#CC(O)(CC)CC)c(C)c2)cc1C(=O)N[C@H](C(=O)O)C(C)C
[1]
  Activity: 20%
[2]
  IC50: 12.6 µM
[3]
  IC50: 3.75 µM

## CCn1c(C(=O)NCC(=O)O)ccc1C(CC)(CC)c1ccc(C#CC(O)(CC)CC)c(C)c1
[4]
  IC50: 0.0857 µM
[1]
  Activity: 55.4%
[2]
  IC50: 5.14 µM
[3]
  IC50: 2.25 µM

## CCN(CC)CCNC(=O)c1ccc(C(CC)(CC)c2ccc(C#CC(O)(CC)CC)c(C)c2)n1CC
[4]
  IC50: 0.0732 µM
[1]
  Activity: 62.2%
[2]
  IC50: 3.77 µM
[3]
  IC50: 5.85 µM
[5]
  IC50: 20.5 µM
[6]
  Ratio IC50: 5.4
[7]
  Ratio IC50: 3.5

## CCN(CC)CCNC(=O)c1cc(C(CC)(CC)c2ccc(C#CC(O)(CC)CC)c(C)c2)cn1CC
[4]
  IC50: 0.0565 µM
[1]
  Activity: 50.3%
[2]
  IC50: 1.8 µM
[3]
  IC50: 5.35 µM
[5]
  IC50: 42.1 µM
[6]
  Ratio IC50: 23.4
[7]
  Ratio IC50: 7.9

## C#CCCOC(=O)c1ccc(C(CC)(CC)c2ccc(C#CC(O)(CC)CC)c(C)c2)n1CC
[2]
  IC50: > 50 µM
[3]
  IC50: > 50 µM

## CCn1cc(C(CC)(CC)c2ccc(C#CC(O)(CC)CC)c(C)c2)cc1C(=O)NCCCN(C)C
[1]
  Activity: 31.6%
[2]
  IC50: 20.2 µM
[3]
  IC50: 15.1 µM

## CCn1cc(C(CC)(CC)c2ccc(C#CC(O)(CC)CC)c(C)c2)cc1C(=O)NCCN(C)C
[4]
  IC50: 0.0513 µM
[1]
  Activity: 55.3%
[2]
  IC50: 13.4 µM
[3]
  IC50: 10.1 µM

## CCn1cc(C(CC)(CC)c2ccc(C#CC(O)(CC)CC)c(C)c2)cc1C(=O)OCCO
[1]
  Activity: 29.7%
[2]
  IC50: 1.88 µM
[3]
  IC50: 11.4 µM

## CCn1cc(C(CC)(CC)c2ccc(C#CC(O)(CC)CC)c(C)c2)cc1C(=O)N[C@@H](C)CO
[1]
  Activity: 19.8%
[2]
  IC50: 1.91 µM
[3]
  IC50: 6.05 µM
[5]
  IC50: 35.4 µM
[6]
  Ratio IC50: 18.5
[7]
  Ratio IC50: 5.9

## CCn1cc(C(CC)(CC)c2ccc(C#CC(O)(CC)CC)c(C)c2)cc1C(=O)N[C@@H](C(=O)O)C(C)C
[1]
  Activity: 5.9%
[2]
  IC50: 18 µM
[3]
  IC50: 10.3 µM
